# Measured values as given in patent US5834259A, “Process and composition for preparing D-aspartic acid” (Monsanto Company, priority 1996, dated 1998).
# Key:
# Type in all cases: biochemical, E. coli K12
# [1] = target: T1, L-aspartate-α-decarboxylase (Escherichia coli, UniProt P0A790); experiment: Temperature study, 50° C. (Example 9); conditions: for concentration in supernatant fluid / percent remaining: 1.0M, 100 g/l cells
# T1 construct: expressed in transfected cells; host or cells: E. coli W3110 transformed with pIF309 = strain NS3291 (ATCC 98675), whole cells
# Procedure: 133.1 g (1 mol) of D/L-aspartic acid was dissolved in deionized H2 O and the pH was adjusted to 7.0 with 10N NaOH, approximately 100 ml. Cells, freshly thawed from -80° C., were added to achieve a final concentration of 100 g/l. Three 2 L fermentors were each charged with 963 ml of substrate solution and 137 ml of cells and then heated to 37° C. and 45° C. while mixing at 300 rpm or heated to 50° C. while mixing at 450 rpm. Samples, approximately 1 ml, were removed over time and pH adjusted to 7.0 with either NaOH or HCl. After centrifugation to remove cells, the supernatant fluid was analyzed for both D- and L-aspartic acid.
# [2] = target: T1, L-aspartate-α-decarboxylase; experiment: Re-use of cells on fresh 0.5M D/L-aspartate (Example 5); conditions: re-used cells, 37° C.
# Procedure: Cells that had already been used in Example 3 were put in fresh substrate to determine if they were still active.
# Fresh D/L-aspartate substrate was prepared as previously described in Example 3. The cells from Example 3 were resuspended in deionized H2 O and made up to 100 ml. The pH of the substrate (900 ml, 0.5M D/L-Asp) was adjusted to 7.0 with NaOH. After placing in the 2 L fermentor, the cells (100 ml) were added. There was no pH control and deionized H2 O was used for substrate. Samples were removed over time, centrifuged and the supernatant fluid diluted appropriately for both D- and L-aspartic acid determination. Temperature was set at 37° C.
# [3] = target: T1, L-aspartate-α-decarboxylase; experiment: Bioconversion of 0.5M D/L-aspartate with NS3291 cells (Example 3)
# Procedure: 66.5 g (0.5M) D/L-aspartate (Sigma, A-9006) was weighed into a 2 L beaker and the pH adjusted to 7.0 with 10N NaOH. The volume was brought to 963 ml with deionized H2 O. 137 ml of cells (NS 3291, described above) were added at a packed cell volume ("PCV") of 7.31 g/10 ml cells resulting in a final volume of 1.1 L. Samples (approximately 1 ml each) were removed over time, centrifuged and the supernatant fluid was analyzed by HPLC for D- and L-aspartic acid content.
# In all of the Examples herein, D- and L-aspartic acid isomers were quantified by HPLC using the following precolumn derivatization method. Aspartic acid was converted into diastereomers using ortho-phthalaldehyde and N-acetyl-L-cysteine. Separation of the diastereomers was achieved on a Supelcosil™ LC-18DB, 3μ, 150×4.6 mm column using a mobile phase of A: 20% methanol/80% triethylamine phosphate and B: methanol, and a step gradient as follows: […]
# Retention times were 4.19 minutes and 4.54 minutes for D-aspartic acid and L-aspartic acid, respectively.
# Samples from bioconversions were centrifuged to remove cells in a microcentrifuge and the supernatant fluid diluted appropriately such that the value determined from the HPLC fell within the linear region of the standard curve. These dilutions were usually between 1:100 and 1:200, made with deionized water.
# [4] = target: T1, L-aspartate-α-decarboxylase; experiment: 1.0M D/L-aspartate, 50 g/l cells, reaction B (Example 6); conditions: 37° C.
# Procedure: 1.0M D/L-aspartate was tested as a substrate for two enzyme cell loads, 100 g/l cells, referred to here as reaction "A", and 50 g/l cells, referred to here as reaction "B".
# 133.1 g of D/L-aspartic acid was dissolved in approximately 600 ml deionized H2 O and pH was adjusted to 7.0 with NaOH, using 100 ml of 10N NaOH and a small amount of 1.0N NaOH. The substrate for reaction A was brought to 963 ml with deionized H2 O. The reaction was started with 137 ml cells that were stored in the cold room. For reaction B, the substrate was brought to a volume of 981.5 ml. The reaction was started with […] cells.
# Both reactions were carried out in 2 L fermentors at pH 7.0 without constant adjustments and at 37° C. Samples were removed over time, centrifuged and the supernatant fluid was diluted and submitted for D- and L-aspartic acid HPLC analysis.
# T1 sequence (P0A790 25-126): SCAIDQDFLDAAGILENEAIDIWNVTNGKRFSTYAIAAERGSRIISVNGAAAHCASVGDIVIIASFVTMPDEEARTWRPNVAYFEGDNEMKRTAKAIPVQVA
# T1 sequence (P0A790 1-24): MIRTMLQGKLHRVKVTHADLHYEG
structure (smiles),measurement,setting,value
"N[C@H](CC(=O)O)C(=O)O [D-Asp, D-aspartic acid]",stability of the isomer,[1],stable
same,concentration in supernatant fluid,[1]; 0.000 hr,54.89 mg/mL
same,concentration in supernatant fluid,[1]; 1.000 hr,54.30 mg/mL
same,percent remaining,[1]; 1.000 hr,52.78%
same,concentration in supernatant fluid,[1]; 3.000 hr,58.01 mg/mL
same,percent remaining,[1]; 3.000 hr,40.61%
same,concentration in supernatant fluid,[1]; 5.0000 hr,58.16 mg/mL
same,percent remaining,[1]; 5.0000 hr,36.97%
same,concentration in supernatant fluid,[1]; 7.000 hr,58.51 mg/mL
same,percent remaining,[1]; 7.000 hr,35.69%
same,concentration in supernatant fluid,[1]; 9.000 hr,58.88 mg/mL
same,percent remaining,[1]; 9.000 hr,33.99%
same,concentration in supernatant fluid,[1]; 13.50 hr,59.62 mg/mL
same,percent remaining,[1]; 13.50 hr,34.19%
same,concentration in supernatant fluid,[1]; 23.00 hr,56.71 mg/mL
same,percent remaining,[1]; 23.00 hr,31.98%
same,concentration in supernatant fluid,[1]; 25.00 hr,59.85 mg/mL
same,percent remaining,[1]; 25.00 hr,31.86%
same,concentration in supernatant fluid,[1]; 27.00 hr,56.87 mg/mL
same,percent remaining,[1]; 27.00 hr,26.89%
same,concentration in supernatant fluid,[1]; 32.00 hr,57.30 mg/mL
same,percent remaining,[1]; 32.00 hr,25.85%
same,concentration in supernatant fluid,[1]; 37.50 hr,58.48 mg/mL
same,percent remaining,[1]; 37.50 hr,27.54%
same,concentration in supernatant fluid,[1]; 47.00 hr,57.93 mg/mL
same,percent remaining,[1]; 47.00 hr,25.58%
same,concentration in supernatant fluid,[1]; 52.00 hr,58.74 mg/mL
same,percent remaining,[1]; 52.00 hr,27.28%
same,concentration in supernatant fluid,[1]; 57.00 hr,65.56 mg/mL
same,percent remaining,[1]; 57.00 hr,32.42%
same,concentration in supernatant fluid,[1]; 71.00 hr,57.17 mg/mL
same,percent remaining,[1]; 71.00 hr,25.52%
same,concentration in supernatant fluid,[1]; 77.00 hr,57.85 mg/mL
same,percent remaining,[1]; 77.00 hr,25.86%
same,concentration in supernatant fluid,[1]; 81.00 hr,57.41 mg/mL
same,percent remaining,[1]; 81.00 hr,25.54%
same,concentration in supernatant fluid,[1]; 99.75 hr,59.36 mg/mL
same,percent remaining,[1]; 99.75 hr,26.14%
same,concentration in supernatant fluid,[2]; 0.0000 hr,30.850 mg/mL
same,concentration in supernatant fluid,[2]; 6.2500 hr,30.820 mg/mL
same,percent remaining,[2]; 6.2500 hr,99.903%
same,concentration in supernatant fluid,[2]; 15.250 hr,29.870 mg/mL
same,percent remaining,[2]; 15.250 hr,96.823%
same,concentration in supernatant fluid,[2]; 25.750 hr,28.250 mg/mL
same,percent remaining,[2]; 25.750 hr,91.572%
same,concentration in supernatant fluid,[2]; 28.000 hr,27.980 mg/mL
same,percent remaining,[2]; 28.000 hr,90.697%
same,concentration in supernatant fluid,[2]; 44.250 hr,25.000 mg/mL
same,percent remaining,[2]; 44.250 hr,81.037%
same,concentration in supernatant fluid,[2]; 63.500 hr,21.760 mg/mL
same,percent remaining,[2]; 63.500 hr,70.535%
same,concentration in supernatant fluid,[2]; 65.000 hr,20.340 mg/mL
same,percent remaining,[2]; 65.000 hr,65.932%
same,percent remaining,[3]; 5.5000 hr,100.07%
same,percent remaining,[3]; 24.500 hr,99.829%
same,percent remaining,[3]; 26.500 hr,94.676%
same,percent remaining,[3]; 32.500 hr,95.870%
same,percent remaining,[3]; 47.500 hr,95.768%
same,percent remaining,[3]; 52.000 hr,96.894%
same,percent remaining,[3]; 68.000 hr,87.099%
same,concentration in supernatant fluid,[4]; 0.0000 hr,56.730 mg/mL
same,concentration in supernatant fluid,[4]; 2.0000 hr,52.420 mg/mL
same,concentration in supernatant fluid,[4]; 4.5000 hr,51.340 mg/mL
same,concentration in supernatant fluid,[4]; 7.0000 hr,50.470 mg/mL
"N[C@@H](CC(=O)O)C(=O)O [L-Asp, L-aspartic acid]",concentration in supernatant fluid,[1]; 0.000 hr,100.0 mg/mL
same,concentration in supernatant fluid,[1]; 1.000 hr,98.93 mg/mL
same,percent remaining,[1]; 1.000 hr,108.9%
same,concentration in supernatant fluid,[1]; 3.000 hr,105.7 mg/mL
same,percent remaining,[1]; 3.000 hr,83.78%
same,concentration in supernatant fluid,[1]; 5.0000 hr,106.0 mg/mL
same,percent remaining,[1]; 5.0000 hr,73.63%
same,concentration in supernatant fluid,[1]; 7.000 hr,106.6 mg/mL
same,percent remaining,[1]; 7.000 hr,73.63%
same,concentration in supernatant fluid,[1]; 9.000 hr,107.3 mg/mL
same,percent remaining,[1]; 9.000 hr,70.13%
same,concentration in supernatant fluid,[1]; 13.50 hr,108.4 mg/mL
same,percent remaining,[1]; 13.50 hr,70.54%
same,concentration in supernatant fluid,[1]; 23.00 hr,103.3 mg/mL
same,percent remaining,[1]; 23.00 hr,65.98%
same,concentration in supernatant fluid,[1]; 25.00 hr,109.0 mg/mL
same,percent remaining,[1]; 25.00 hr,65.73%
same,concentration in supernatant fluid,[1]; 27.00 hr,103.6 mg/mL
same,percent remaining,[1]; 27.00 hr,55.48%
same,concentration in supernatant fluid,[1]; 32.00 hr,104.4 mg/mL
same,percent remaining,[1]; 32.00 hr,53.33%
same,concentration in supernatant fluid,[1]; 37.50 hr,106.5 mg/mL
same,percent remaining,[1]; 37.50 hr,58.82%
same,percent remaining,[1]; 47.00 hr,52.77%
same,concentration in supernatant fluid,[1]; 52.00 hr,107.0 mg/mL
same,percent remaining,[1]; 52.00 hr,56.28%
same,concentration in supernatant fluid,[1]; 57.00 hr,119.4 mg/mL
same,percent remaining,[1]; 57.00 hr,66.89%
same,concentration in supernatant fluid,[1]; 71.00 hr,104.2 mg/mL
same,percent remaining,[1]; 71.00 hr,52.65%
same,concentration in supernatant fluid,[1]; 77.00 hr,105.4 mg/mL
same,percent remaining,[1]; 77.00 hr,53.35%
same,concentration in supernatant fluid,[1]; 81.00 hr,104.6 mg/mL
same,percent remaining,[1]; 81.00 hr,52.69%
same,concentration in supernatant fluid,[1]; 99.75 hr,108.1 mg/mL
same,percent remaining,[1]; 99.75 hr,53.93%
same,concentration in supernatant fluid,[2]; 0.0000 hr,24.700 mg/mL
same,concentration in supernatant fluid,[2]; 6.2500 hr,17.130 mg/mL
same,percent remaining,[2]; 6.2500 hr,69.352%
same,concentration in supernatant fluid,[2]; 15.250 hr,15.620 mg/mL
same,percent remaining,[2]; 15.250 hr,63.239%
same,concentration in supernatant fluid,[2]; 25.750 hr,10.870 mg/mL
same,percent remaining,[2]; 25.750 hr,44.008%
same,concentration in supernatant fluid,[2]; 28.000 hr,9.5300 mg/mL
same,percent remaining,[2]; 28.000 hr,38.583%
same,concentration in supernatant fluid,[2]; 44.250 hr,4.4200 mg/mL
same,percent remaining,[2]; 44.250 hr,17.895%
same,concentration in supernatant fluid,[2]; 63.500 hr,0.98 mg/mL
same,percent remaining,[2]; 63.500 hr,3.9676%
same,concentration in supernatant fluid,[2]; 65.000 hr,0.95 mg/mL
same,percent remaining,[2]; 65.000 hr,3.8462%
same,percent remaining,[3]; 5.5000 hr,41.739%
same,percent remaining,[3]; 24.500 hr,0.5888%
same,percent remaining,[3]; 26.500 hr,0.4157%
same,percent remaining,[3]; 32.500 hr,0.2078%
same,percent remaining,[3]; 47.500 hr,0.1039%
same,percent remaining,[3]; 52.000 hr,0.06928%
same,percent remaining,[3]; 68.000 hr,1.4894%
same,concentration in supernatant fluid,[4]; 0.0000 hr,57.440 mg/mL
same,concentration in supernatant fluid,[4]; 2.0000 hr,53.770 mg/mL
